Measured values: US9828630B2, “Methods of enhancing genetic diagnosis” (BioLamina AB, priority 2011, dated 2017)

Tested on: human ES cells
Assay: Cell survival assay, 24 hours (1 day) after plating from single cell suspension
Assay type: cell-based
Details: for adhesion / survival without additives compared with ROCK inhibitor treated cells: 1 day (24 hours) after plating; for survival / attachment of dissociated hES cells 24 hours (one day) after plating: single cell suspension, O3 medium
Method: The assay was performed as described (Extracellular Matrix Protocols, 2000). Briefly, 96-well plates were coated by extracellular matrix proteins as described above and blocked by O3 medium containing bovine serum albumin. The ES cells were plated at a cell density of 600 cell/mm^2 upon extracellular matrix-coated plates and were left to adhere for either 1 hour or 1 day at the cell incubator. Non-adherent cells were washed away, and adherent cells were fixed for 20 min by 5% glutaraldehyde, stained by 0.1% Crystal Violet.
The survival assay was performed as described for the cell adhesion assay above, except that the cells were left in the cell incubator for 24 hours. For inhibition of survival assay, the cells were kept in a medium with function blocking antibodies at the concentrations recommended by the manufacturer or pathway inhibitors at concentrations indicated in the text for 30 minutes, and then plated on the coated dishes. All the experiments were performed in quadruplicate.
Pluripotent hES cells express α1, α5, β1, β2 and γ1 laminin chains. To compare the adhesion and clonal survival of hES cells plated from single cell suspension to different coating substrata, hES cells growing as monolayers on LN-511 or as clusters on a feeder layer were trypsinized into single cell suspension in O3 medium and plated on cell culture dishes coated with Matrigel, LN-111, LN-511, LN-521 or a mixture of LN-511 and LN-521, in the absence or presence of a ROCK inhibitor (Y-27632) and analyzed after 24 hours.

“LN-521: protein formed by joining laminin α5, β2 and γ1 chains; human recombinant, produced in HEK293 cells” was tested, and the “adhesion / survival without additives compared with ROCK inhibitor treated cells” value was “similar”, the “adhesion / survival without additives compared with ROCK inhibitor treated cells” value (listed as LN-532) was “no ROCK inhibitor is necessary” and the “survival of cells compared with LN-511” value (24 hours, no ROCK inhibitor) was “significantly higher”. The “cell shape 24 hours after plating on LN-521” value (absence or presence of ROCK inhibitor) was “round”, the “survival relative to Matrigel” value (exogenous bFGF removed from the O3 medium) was 20 times and the “survival 24 hours after plating” value (medium lacking all growth factors of the TeSR1 formulation (bFGF, LiCl, GABA, pipecolic acid, TGFβ)) was “survived”. For the same substance, the “survival after 24 hours relative to LN-511” value (no ROCK inhibitor) was “three”, the “survival / attachment of dissociated hES cells 24 hours (one day) after plating” value (“survival / attachment” for short) (no ROCK inhibitor) was “did so as single cells” and the “survival / attachment” value (no ROCK inhibitor, listed as human r-laminin-521) was “survived”. For the same substance, the “survival / attachment” value (no ROCK inhibitor, listed as laminin-521) was “survived and started to proliferate”.
